8 compounds from US7202258B2, “α- and β-amino acid hydroxyethylamino sulfamic acid derivatives useful as retroviral protease inhibitors” (G.D. Searle & Co., priority 1992, dated 2007) can be followed below.

Structures are written as SMILES. Like-named read-outs stand apart in the source and are kept apart here.

One series addresses T1, HIV protease (Human immunodeficiency virus type 1 group M subtype B, UniProt P04585).
T1 construct: HIV protease is diluted in the assay buffer to a final enzyme concentration of 12.3 nanomolar, based on a molecular weight of 10,780
The experiment in a line: HIV protease enzyme assay (fluorescence, substrate 2-Ile-Nle-Phe(p-NO2)-Gln-ArgNH2). It is filed as biochemical. The source says: The compounds of the present invention are effective HIV protease inhibitors. Utilizing an enzyme assay as described below, the compounds set forth in the examples herein disclosed inhibited the HIV enzyme. The preferred compounds of the present invention and their calculated IC50 (inhibiting concentration 50%, i.e., the concentration at which the inhibitor compound reduces enzyme activity by 50%) values are shown in Table 17. The enzyme method is described below. The substrate is 2-Ile-Nle-Phe(p-NO2)-Gln-ArgNH2. The positive control is MVT-101 (Miller, M. et al, Science, 246, 1149 (1989)]The assay conditions are as follows: • Assay buffer: 20 mM sodium phosphate, […] • 20% glycerol • 1 mM EDTA • 1 mM DTT • 0.1% CHAPS
The above described substrate is dissolved in DMSO, then diluted 10 fold in assay buffer. Final substrate concentration in the assay is 80 μM.
HIV protease is diluted in the assay buffer to a final enzyme concentration of 12.3 nanomolar, based on a molecular weight of 10,780.
The final concentration of DMSO is 14% and the final concentration of glycerol is 18%. The test compound is dissolved in DMSO and diluted in DMSO to 10× the test concentration; 10 μl of the enzyme preparation is added, the materials mixed and then the mixture is incubated at ambient temperature for 15 minutes. The enzyme reaction is initiated by the addition of 40 μl of substrate. The increase in fluorescence is monitored at 4 time points (0, 8, 16 and 24 minutes) at ambient temperature. Each assay is carried out in duplicate wells.

Another series relates to CEM cells. As to the kind of experiment: Intrinsic toxicity of test compound in uninfected CEM cells (MTT). It is filed as cell-based. The conditions noted are these: human, 7 days. The source says: Methods, 20, 309–321 (1988). […] A Frozen culture c.
A further series has as its system HIV-1. The experiment in a line: microbe, parasite or virus in culture. As to conditions: Human immunodeficiency virus 1, CCRF-CEM, 168 h, read-out: EC50 (nm).
Where [1] appears, read: Table 18, compounds of Table 1C, read-out: IC50 or % Inhibition: IC50.

Method for HIV-1: Assays were performed in 96-well tissue culture plates. CEM cells, a CD4^+ cell line, were grown in RPMI-1640 medium (Gibco) supplemented with a 10% fetal calf serum and were then treated with polybrene (2 μg/ml). An 80 μl volume of medium containing 1×10^4 cells was dispensed into each well of the tissue culture plate, no each well was added a 100 μl volume of test compound dissolved in tissue culture medium (or medium without test compound as a control) to achieve the desires final concentration and the cells were incubated at 37° C. for 1 hour. […] HIV-1 was diluted in culture medium to a concentration of 5×10^4 TCID50 per ml (TCID50=the dose of virus that infects 50% of cells in tissue culture), and a 20 μL volume of the virus sample (containing 1000 TCID50 of virus) was added to wells containing test compound and to wells containing only medium (infected control cells). Several wells received culture medium without virus (uninfected control cells). Likewise, the intrinsic toxicity of the test compound was determined by adding medium without virus to several wells containing test compound.
In experiments 2 and 4 the final concentrations of test compounds were 1, 10, 100 and 500 μg/ml. Either azidothymidine (AZT) or dideoxyinosine (ddI) was included as a positive drug control. […] DMSO was added to all control wells at an appropriate concentration.
Following the addition of virus, cells were incubated at 37° C. in a humidified, 5% CO2 atmosphere for 7 days. Test compounds could be added on days 0, 2 and 5 if desired. On day 7, post-infection, the cells in each well were resuspended and a 100 μl sample of each cell suspension was removed for assay. A 20 μL volume of a 5 mg/ml solution of 3-(4,5-dimethylthiazol-2-yl)-2,5-diphenyltetrazolium bromide (MTT) was added to each 100L cell suspension, and the cells were incubated for 4 hours at 27° C. in a 5% CO2 environment. […] To each sample was added 100 μl of 10% sodium dodecylsulfate in 0.01 N HCl to lyse the cells, and samples were incubated overnight. The absorbance at 590 nm was determined for each sample using a Molecular Devices microplate reader. Absorbance values for each set of wells is compared to assess viral control infection, uninfected control cell response as well as test compound by cytotoxicity and antiviral efficacy.

As a reminder, the IC50 is the midpoint of a concentration-inhibition curve. The EC50 is the concentration needed to bring the measured effect to its halfway point. Compound `CCCCNS(=O)(=O)N(CC(C)C)C[C@@H](O)[C@H](Cc1ccccc1)NC(=O)[C@@H](NC(=O)CN(C)C)C(C)(C)C` [Entry 1] registered an IC50 against HIV protease of 40 nM. Moreover, the “TD50 (nm)” value in the series on CEM cells is 56,000 nM. Besides, the EC50 with HIV-1 was 167 nM.

Consider `CCCCNS(=O)(=O)N(CC(C)C)C[C@@H](O)[C@H](Cc1ccccc1)NC(=O)[C@H](CC(N)=O)NC(=O)c1ccc2ccccc2n1` [Entry 2], for which, on HIV protease, 5 nM corresponded to half-maximal inhibition (IC50). For the same compound, in the series with CEM cells, the “TD50 (nm)” value is 65,000 nM. Also, the EC50 in the series on HIV-1 came out at 23 nM.

Consider `CC(C)CN(C[C@@H](O)[C@H](Cc1ccccc1)NC(=O)[C@H](CC(N)=O)NC(=O)c1ccc2ccccc2n1)S(=O)(=O)N1CCN(C)CC1` [Entry 3], for which, on HIV protease, it took 3 nM to reach half-maximal inhibition (IC50). Moreover, in the series on CEM cells, the “TD50 (nm)” value is 28,000 nM. Moreover, the EC50 in the series with HIV-1 was determined as 42 nM.

Regarding `CC(C)CN(C[C@@H](O)[C@H](Cc1ccccc1)NC(=O)[C@H](CC(N)=O)NC(=O)c1ccc2ccccc2n1)S(=O)(=O)NC(C)(C)C` [Entry 4], the IC50 against HIV protease amounted to 2 nM. Also, the “TD50 (nm)” value with CEM cells is given as 39,000 nM. Also, in the series with HIV-1, the EC50 was less than 15 nM.

Take `COc1ccc(COC(=O)NC[C@@H](C)C(=O)N[C@@H](Cc2ccccc2)[C@H](O)CN(CC(C)C)S(=O)(=O)NC(C)(C)C)cc1` [Entry 5]: the IC50 on HIV protease (Table 17, read-out: IC50) was determined as 13 nM.

With `CC(C)CN(C[C@@H](O)[C@H](Cc1ccccc1)NC(=O)OCc1ccccc1)S(=O)(=O)N1CCCCC1` [G], at HIV protease (setting [1]), the IC50 was 66 nM.

On to `CC(C)(C)NS(=O)(=O)N(CC1CCCCC1)C[C@@H](O)[C@H](Cc1ccccc1)NC(=O)OCc1ccccc1` [I], for which the IC50 on HIV protease (setting [1]) worked out at 1700 nM.

As for `COC(=O)C(C)(C)NS(=O)(=O)N(CC(C)C)C[C@@H](O)[C@H](Cc1ccccc1)NC(=O)OCc1ccccc1` [J], on HIV protease (setting [1]), the IC50 turned out to be 2690 nM.
